From patent publication US20190203240A1, “METHODS FOR THE PRODUCTION OF RHAMNOSYLATED FLAVONOIDS” (Universitaet Hamburg, priority 2016, published 2019)
Several values for one entry are separate records, joined by “and”; a condition that tells them apart may be missing. Equal values may be shown once.

How the values were obtained:
[1] = test system: procollagen I; assay: Stimulation of procollagen I synthesis in NHDF (ELISA); format: cell-based, human; settings: 72 hours, 100 μM
Protocol: (§1) Tests were performed with normal human dermal fibroblast cultures at the 8th passage. Cells were grown in DMEM supplemented with glutamine at 2 mM, penicillin at 50 U/mL and streptomycin (50 μg/mL) and 10% of fetal calf serum (FCS) at 37° C. in a 5% CO2 atmosphere.
(§2) Fibroblasts were cultured for 24 hours before the cells were incubated with the test compounds for further 72 hours. After the incubation the culture supernatants were collected in order to measure the released quantities of procollagen I, VEGF, and fibronectin by means of ELISA. Reference test compounds were vitamin C (procollagen I), PMA (VEGF), and TGF-β (fibronectin).

[2] = test system: hydrogen peroxide (DHR) in NHEK cells; assay: Protection against UV-induced H2O2 stress in NHEK (DHR probe, flow cytometry); format: cell-based, human; settings: 180 mJ/cm^2 UVB (2839 mJ/cm^2 UVA), 100 μM
Protocol: (§3) Pre-incubated NHEK were incubated with the test compound for 24 h. Then the specific fluorescence probe for the measurement of hydrogen peroxide (DHR) or lipid peroxides (C11-fluor) was added and incubated for 45 min. Irradiation occurred with in H2O2 determination UVB at 180 mJ/cm^2 (+UVA at 2839 mJ/cm^2) or UVB at 240 mJ/cm^2 (+UVA at 3538 mJ/cm^2) in lipid peroxide, respectively, using a SOL500 Sun Simulator lamp. After irradiation the cells were post-incubated for 30 min before flow-cytometry analysis.

[3] = test system: lipid peroxides (C11-fluor) in NHEK cells; assay: Protection against UV-induced lipid peroxide in NHEK (C11-fluor probe, flow cytometry); format: cell-based, human
Protocol: as §3

[4] = test system: normal human epidermal keratinocytes (NHEK); assay: Cytotoxicity on NHEK monolayer (MTT reduction assay and morphological observation); format: cell-based; settings: MTT; for Viability (%): single values, listed as Nar-5-Rha
Protocol: To determine the cytotoxicity of flavonoid-5-O-α-L-rhamnosides tests were performed versus their aglycon derivatives in cell monolayer cultures. For this purpose concentrations ranging from 1 μM to 250 μM were chosen. The viability of normal human epidermal keratinocytes (NHEK) was twice evaluated by a MTT reduction assay and morphological observation with a microscope. NHEK were grown at 37° C. and 5% CO2 aeration in Keratinocyte-SFM medium supplemented with epidermal growth factor (EGF) at 0.25 ng/mL, pituitary extract (PE) at 25 μg/mL and gentamycin (25 μg/mL) for 24 h and were used at the 3rd passage. For cytotoxicity testing, pre-incubated NHEK were given fresh culture medium containing a specific concentration of test compound and incubated for 24 h. After a medium change at same test concentration cells were incubated a further 24 h until viability was determined. Test results are given in Table B2 and illustrated in FIG. 10.

[5] = test system: STAT3; assay: STAT3 activity in HeLa-STAT3-luc cells stimulated with IFN-γ (luciferase); format: cell-based; settings: +IFNγ 25 U/ml
Protocol: HeLa-STAT3-luc cells were stably transfected with the plasmid 4×M67 pTATA TK-Luc. Cells (20×10^3 cells/ml) were seeded 96-well plate the day before the assay. Then the cells were treated with the test substances for […] and then stimulated with IFN-γ 25 IU/ml. After 6 h, the cells were washed twice with PBS and lysed in […] lysis buffer containing 25 mM Tris-phosphate (pH 7.8), 8 mM MgCl2, 1 mM DTT, 1% Triton X-100, and 7% glycerol during […] at RT in a horizontal shaker. Luciferase activity was measured using GloMax 96 microplate luminometer (Promega) following the instructions of the luciferase assay kit (Promega, Madison, Wis., USA). […] The experiments for each concentration of the test items were done in triplicate wells.

[6] = test system: IL-8; assay: Anti-inflammatory potential: secreted IL-8 in stimulated NHEK (ELISA); format: cell-based, human; settings: 100 μM; for Cytokine [pg/mL] IL-8: single values
Protocol: (§4) NHEK were pre-incubated for 24 h with the test compounds. The medium was replaced with the NHEK culture medium containing the inflammatory inducers (PMA or Poly I:C) and incubated for another 24 hours. Positive and negative controls ran in parallel. At the endpoint the culture supernatants were quantified of secreted IL-8, PGE2 and TNF-α, by means of ELISA.

[7] = test system: matrix metallopeptidase 1 (MMP-1); assay: MMP-1 release in UVA-irradiated NHDF (ELISA); format: cell-based, human
Protocol: as §1
Human fibroblasts were cultured for 24 hours before the cells were pre-incubated with the test or reference compounds (dexamethasone) for another 24 hours. The medium was replaced by the irradiation medium (EBSS, CaCl2) 0.264 g/L, MgClSO4 0.2 g/L) containing the test compounds) and cells were irradiated with UVA (15 J/cm^2). The irradiation medium was replaced by culture medium including again the test compounds incubated for 48 hours. After incubation the quantity of matrix metallopeptidase 1 (MMP-1) in the culture supernatant was measured using an ELISA kit.

[8] = test system: fibronectin; assay: Stimulation of fibronectin synthesis in NHDF (ELISA); format: cell-based, human; settings: 100 μM
Protocol: as §1, §2

[9] = test system: PGE2; assay: Anti-inflammatory potential: secreted PGE2 in stimulated NHEK (ELISA); format: cell-based, human; settings: PMA stimulation, 100 μM
Protocol: as §4

[10] = 240 mJ/cm^2 UVB (3538 mJ/cm^2 UVA), 100 μM
[11] = 240 mJ/cm^2 UVB (3538 mJ/cm^2 UVA), 100 μM, single values
[12] = NHDF irradiated 15 J/cm^2 UVA, 100 μM

With `C[C@@H]1O[C@@H](Oc2cc(O)cc3c2C(=O)CC(c2ccc(O)cc2)O3)[C@H](O)[C@H](O)[C@H]1O` (mixture of isomers) [NR1, Naringenin-5-O-α-L-rhamnoside] the “Procollagen I % Control” value [1] was 66%, the “Procollagen I % Stimulation” value [1] was −34% and the “Procollagen I Mean” value [1] was 1097 ng/mL. The “Procollagen I” value ([1]; single values) was 1334 ng/mL and 860 ng/mL, the “H2O2 % irradiated control” value [2] was 136% and the “H2O2 (AU) Mean” value [2] was 2516.5 AU. The “H2O2 Protection %” value [2] was −44%, the “H2O2 (AU) (DHR GMFI)” value ([2]; single values) was 2531 AU and 2502 AU and the “C11-fluor (AU) Mean (1/GMFI)” value [3, 10] was 4.3E−04 AU. The “lipid peroxide % Irradiated control” value [3, 10] was 93%, the “lipid peroxide Protection %” value [3, 10] was 9% and the “C11-fluor (AU) 1/GMFI” value [3, 11] was 4.1E−04 AU and 4.4E−04 AU. The “C11-fluor (AU) GMFI” value [3, 11] was 2414 AU and 2255 AU, the “anti-oxidative function on lipid peroxides” value ([3]; UV irradiation) was “anti-oxidative function” and the “Viability (%) Mean” value ([4]; 1 μM) was 101%. The “Viability (%)” value ([4]; 1 μM) was 91% and 111%, the “Viability (%) Mean” value ([4]; 2.5 μM) was 93% and the “Viability (%)” value ([4]; 2.5 μM) was 92% and 93%. For the same compound, the “Viability (%) Mean” value ([4]; 5 μM) was 86%, the “Viability (%)” value ([4]; 5 μM) was 85% and 88% and the “Viability (%) Mean” value ([4]; 10 μM) was 97%. The “Viability (%)” value ([4]; 10 μM) was 94% and 100%, the “Viability (%) Mean” value ([4]; 25 μM) was 95% and the “Viability (%)” value ([4]; 25 μM) was 92% and 98%. The “Viability (%) Mean” value ([4]; 50 μM) was 84%, the “Viability (%)” value ([4]; 50 μM) was 78% and 91% and the “Viability (%) Mean” value ([4]; 100 μM) was 86%. The “Viability (%)” value ([4]; 100 μM) was 82% and 90%, the “Viability (%) Mean” value ([4]; 250 μM) was 83% and the “Viability (%)” value ([4]; 250 μM) was 79% and 87%. The “% Activation (STAT3; IFNγ = 100%)” value ([5]; 25 μM) was 58.47%, the “RLU 1” value ([5]; 25 μM) was 10925 RLU and the “RLU 2” value ([5]; 25 μM) was 8301 RLU. For the same compound, the “RLU 3” value ([5]; 25 μM) was 8752 RLU, the “RLU MEAN” value ([5]; 25 μM) was 9326 RLU and the RLU specific ([5]; 25 μM) was 7319 RLU. The “% Activation (STAT3; IFNγ = 100%)” value ([5]; 50 μM) was 69.97%, the “RLU 1” value ([5]; 50 μM) was 18272 RLU and the “RLU 2” value ([5]; 50 μM) was 6426 RLU. The “RLU 3” value ([5]; 50 μM) was 7599 RLU, the “RLU MEAN” value ([5]; 50 μM) was 10766 RLU and the RLU specific ([5]; 50 μM) was 8758 RLU. The “Cytokine [pg/mL] IL-8 Mean” value ([6]; PMA stimulation) was 2564 pg/mL, the “IL-8 % stim. control” value ([6]; PMA stimulation) was 88% and the “Cytokine [pg/mL] IL-8” value ([6]; PMA stimulation) was 2572 pg/mL and 2555 pg/mL. For the same compound, the “Cytokine [pg/mL] IL-8 Mean” value ([6]; poly(I:C) stimulation) was 3154 pg/mL, the “IL-8 % stim. control” value ([6]; poly(I:C) stimulation) was 86% and the “Cytokine [pg/mL] IL-8” value ([6]; poly(I:C) stimulation) was 3055 pg/mL and 3253 pg/mL. The “MMP-1 % Irradiated control” value [7, 12] was 338%, the “MMP-1 % Protection” value [7, 12] was −372% and the “MMP-1 (ng/ml), single replicates” value [7, 12] was 211.7 ng/mL and 268.8 ng/mL. The “Mean MMP-1” value [7, 12] was 240.3 ng/mL, the “upregulation of MMP-1 biosynthesis” value ([7]; NHDF, UV-irradiated conditions) was roughly 4 fold and the fibronectin synthesis increase [8] was 20%. The “Fibronectin % Control” value ([8]; 72 h incubation) was 120%, the “Fibronectin % Stimulation” value ([8]; 72 h incubation) was 20% and the “Fibronectin (ng/ml), single replicates” value ([8]; 72 h incubation) was 6833 ng/mL and 7820 ng/mL. For the same compound, the “Fibronectin Mean” value ([8]; 72 h incubation) was 7326 ng/mL, the “Cytokine [pg/mL] PGE2 Mean” value [9] was 1271 pg/mL and the “PGE2 % stim. control” value [9] was 81%. The “Cytokine [pg/mL] PGE2” value ([9]; single values) was 851 pg/mL and 1691 pg/mL.
